What was measured:
[1] = dLGG only treatment of mice without LPS challenge; type: in vivo; conditions: dLGG 25 mg/kg only, no LPS, 24 hours
Description: (§1) The plant components or the drugs were all injected an hour before administration of LPS. Another animal group was only treated with 25 mg/kg dLGG (dLGG 25 only). All groups were sacrificed after 24 hours and blood samples were collected by retro-orbital bleeding before scarification of mice and organ tissues were collected immediately.
Moreover, one group of mice was treated with dLGG (25 mg/kg) without LPS challenge. All the mice were sacrificed after 24 hours. Mice sera were collected to measure and compare the concentration of IL-6 and TNF-α, and the levels of AST and ALT.

LPS-challenged mice = assay: LPS-induced acute inflammation and sepsis in mice; type: in vivo
Description: as §1
(§2) Liver, lung and kidney tissues were fixed in 10% buffered formalin then it were embedded into paraffin. The paraffin-embedded tissues were sliced (8-μm) and stained by hematoxylin and eosin (H&E). Besides, sections of paraffin-embedded liver and lung (4-μm for thickness) were heat immobilized and deparaffinized by use of xylene and rehydrated in a graded series of ethanol with a final wash in distilled water, and finally soaked into decloaking chamber (Biocare Medical) containing Target Retrieval Solution (DakoCytomation) for antigen retrieval.
Immunohistochemistry with liver, lung and kidney tissues were done by incubating the samples into F4/80 primary antibody for overnight respectively. After subsequent washing, each of the samples was incubated using florescent-labeled secondary antibody. Florescent images of the macrophage cell infiltration (positive F4/80 stained cell) were captured by AxioVision software (Carl Zeiss MicroImaging, Inc.) and then analyzed.
(§3) Blood samples of tested mice were centrifuged under 4° C., 1400× g for 15 minutes to separate serum from blood. Commercial kit purchased from Randox Laboratories (UK) was used to determine the activity of aspartate aminotransferase (AST) and alanine aminotransferase (ALT) in serum supernatants.
Serum levels of interleukin (IL-6) and tumor necrosis factor-alpha (TNF-α) were determined using a commercial kit from eBioscience.

MITF = assay: Western blot of MITF expression in B16 melanoma cells; type: cell-based; conditions: FIG. 10C, 45 μM dLGG
Description: (§4) The cellular proteins were produced according to previously published method (Chiang et al., 2005). Protein content was measured by Bradford method (Bio-Rad).
(§5) Molecular mechanism of dLGG depigmentation effect was further studied. Western blotting assay was preceded for testing the effect of dLGG on tyrosinase and MITF expression.

[2] = test system: hypoxia inducible factor-1α (HIF-1α); assay: HIF-1α expression in LPS-challenged mice; type: in vivo; conditions: FIG. 9A, 9C; pre-treatment before LPS
Description: as §1

tyrosinase = assay: Western blot of tyrosinase expression in B16 melanoma cells; type: cell-based; conditions: FIG. 10C, 45 μM dLGG
Description: as §4, §5

[3] = test system: LPS/D-GaIN-challenged mice; assay: LPS/D-GaIN-induced acute fulminant hepatitis in mice; type: in vivo
Description: The hepatoprotective effect in live body of compound dLGG isolated from Crassocephalum rabens (Asteraceae) in LPS/D-GaIN-induced fulminant hepatitis were investigated and compared with the hepatoprotective drug, silymarin (SM). Mice were randomly separated into four groups (n=6 per group) for treatments: vehicle; LPS/D-GaIN; 50 mg/kg of silymarin (Post-SM50); and 10 mg/kg dLGG (post-dLGG10), and all treatments were given intraperitoneally. One hour after the mice treated with 500 ng LPS and 250 μL saline containing 25 mg D-GaIN (Huang et al., 2012), the dLGG and silymarin were given intraperitoneally. Besides, the other two groups of mice were treated dLGG or silymarin continuously for three days to perform the protection effect of dLGG against LPS/D-GaIN induced fulminate hepatitis. Eight hours after LPS/D-GaIN injection, blood samples were collected through retro-orbital bleeding, and then all mice were sacrificed to collect blood samples and liver tissues.
as §2
In situ detection of apoptotic cells was conducted according to the manufacturer's protocol (Chemicon). It is using terminal deoxynucleotidyl transferase to work on nucleotide sequence to […] for terminal deoxynucleotidyl transferase-mediated dUTP nick end labeling. Finally, AxioVision software (Carl Zeiss MicroImaging, Inc.) was used to analyze the number of TUNEL-positive cells.
as §3

PPAR-δ = PPAR-δ expression in LPS-challenged mice; type: in vivo; conditions: FIG. 9B, 9D; pre-treatment before LPS
Description: as §1

B16 melanoma cells = assay: Depigmentation assay in B16 melanoma cells; type: cell-based; conditions: FIG. 10B; 45 μM, vs vehicle control
Description: B16 melanoma cell line was obtained from ATCC (Manassas, Va.) and grown in RPMI medium 1640 (Gibco/BRL) supplemented with 10% heat-inactivated fetal bovine serum, 100 unit/mL penicillin and 100 μg/mL streptomycin, at 37° C. in a humidified 5% CO2 incubator.
B16 melanoma cell line was plated on to 10 cm culture dishes at an initial density of 1×10^5 cells dish^−1 and then cultured under the same condition described above. After 12 hours of seeding, the cells were treated by vehicle DMSO, kojic acid (KA), ethyl acetate (EA) fractions of CR's water and ethanolic extractions (Hou et al., 2007) for 72 hours. These cells were harvested by centrifuge and visually evaluated the color of these cell pellets. In another experiment, depigmentation effect of the single compound dLGG was observed and evaluated at different time points with the same procedure.

[4] = high dose (CR-EA 50 mg/kg, dLGG 25 mg/kg) 1 hour before 10 mg/kg LPS, serum at 24 hours
[5] = FIG. 5A, dLGG 10 mg/kg or SM 50 mg/kg i.p. 1 hour after LPS/D-GaIN, blood at 8 hours

CC/C=C\C/C=C\C/C=C\CCCCCCCC(=O)OC[C@H](CO[C@@H]1O[C@H](CO)[C@H](O)[C@H](O)[C@H]1O)OC(=O)CCCCCCC/C=C\C/C=C\C/C=C\CC [dLGG, 1,2,di-O-α-linolenoyl-3-O-β-galactopyranosyl-sn-glycerol]
harm to mice [1]: harmfulless to mice
sepsis-induced acute kidney injury, renal histology (H&E) (LPS-challenged mice; FIG. 8A, pre-treated 1 hour before LPS, simvastatin 10 mg/kg): remarkably protective effect
infiltration and activation of macrophages (F4/80 immunohistology staining) (LPS-challenged mice; FIG. 8C, pre-treated 1 hour before LPS, simvastatin 10 mg/kg): decreased infiltration and activation of macrophages
damages in mice liver, lung and kidney caused by LPS (LPS-challenged mice; dLGG 25 mg/kg after LPS-challenge, data not shown): effectively reduce damages
serum ALT decrease (LPS-challenged mice; [4]): 2.3 times
serum AST decrease (LPS-challenged mice; [4]): 1.8 times
serum IL-6 decrease (LPS-challenged mice; [4]): 3.5 times
serum TNF-α decrease (LPS-challenged mice; [4]): 3.0 times
expression of MITF (western blot) (MITF): inhibit the expression
HIF-1α expression [2]: down-regulated
expression of tyrosinase (western blot) (tyrosinase): inhibit the expression
serum ALT level [3, 5]: significantly inhibit
serum AST level [3, 5]: significantly inhibit
liver histology H&E (infiltration of inflammatory cells into liver lobules, tissue destruction, erythrocyte influx) ([3]; FIG. 5B, dLGG 10 mg/kg or SM 50 mg/kg i.p. 1 hour after LPS/D-GaIN): attenuated
numbers of apoptosis cells, TUNEL positive-stained cells in liver tissue ([3]; FIG. 5C, dLGG 10 mg/kg i.p. after LPS/D-GaIN): significantly decreased
protection against LPS/D-GaIN-induced fulminant hepatic failure ([3]; pre-treated 1 or 10 mg/kg 1 hour before LPS/D-GaIN-challenge, data not shown): significant protection effect
PPAR-δ expression (PPAR-δ): down-regulated
depigmentation of B16 melanoma cells at different time points (B16 melanoma cells): significantly depigmentation in a time-dependent manner
